Paper PMC10304291, “THC-Reduced Cannabis sativa L.—How Does the Solvent Determine the Bioavailability of Cannabinoids Given Orally?” (Nutrients, 2023)
Read-outs that look alike come from different tables or passages of the source.

Assays:
[1] = rats; oral CBD 120 mg/kg in Cremophor; cited from earlier work
[2] = mice; oral CBD 120 mg/kg in Cremophor; cited from earlier work
[3] = cited from earlier work
[4] = 24 volunteers, 0.078 mg/kg CBD + […] THC, cited from earlier work
[5] = 12 healthy volunteers; chocolate cookies with 0.57 mg/kg CBD + 0.28 mg/kg THC; after 1.5–3 h; cited from earlier work
[6] = Brain pharmacokinetics of CBD and THC after single oral dose of Cannabis sativa extract; details: for mean concentration over time: Table 7; for AUC(0-t): AUC0–24, brain
[7] = Whole-blood pharmacokinetics of CBD and THC after single oral dose of Cannabis sativa extract; details: for CBD levels in whole blood: range of levels; for concentration at 0.5 h / concentration at 1 h / concentration at 2 h / concentration at 4 h / concentration at 6 h / concentration at 24 h / AUC(0-t) / Cmax / MRT / Tmax / CL / Vd: whole blood; for concentration at 0.5 h / concentration at 1 h / concentration at 2 h / concentration at 4 h / concentration at 6 h / concentration at 24 h: oral; for AUC(0-t): AUC0–24, whole blood
[8] = 1 h after gelatin capsules with extract
[9] = male, Wistar, rat, brain, po, 30 mg/kg, Cremophor, single oral dose of extract 30 mg/kg
[10] = male, Wistar, rat, brain, po, 30 mg/kg, Rapae oleum, single oral dose of extract 30 mg/kg
[11] = male, Wistar, rat, 30 mg/kg, Mean Concentration ± SD, blood, Rapae oleum, single oral dose of extract 30 mg/kg
[12] = male, Wistar, rat, 30 mg/kg, Mean Concentration, blood, Cremophor, single oral dose of extract 30 mg/kg
[13] = male, Wistar, rat, 30 mg/kg, mean concentration over time, Blood/Cremophor, single oral dose of extract 30 mg/kg, Table 7
[14] = male, Wistar, rat, 30 mg/kg, mean concentration over time, Blood/Rapae Oleum, single oral dose of extract 30 mg/kg, Table 7
[15] = male, Wistar, rat, po, 30 mg/kg, Cremophor, single oral dose of extract 30 mg/kg
[16] = male, Wistar, rat, po, 30 mg/kg, Rapae oleum, single oral dose of extract 30 mg/kg
[17] = Cremophor, single oral dose of extract 30 mg/kg
[18] = Rapae oleum, single oral dose of extract 30 mg/kg

**Q.** Which results are given for `C=C(C)[C@@H]1CCC(C)=C[C@H]1c1c(O)cc(CCCCC)cc1O` [CBD, cannabidiol]?
**A.** brain peak CBD concentration [1]: 8.6 µg/g; peak whole-blood concentration [1]: ~2 µg/mL; brain peak CBD concentration [2]: 1.3 µg/g; peak whole-blood concentration [2]: ~2 µg/mL; peak concentration in the blood ([3]; oral CBD 120 mg/kg in Cremophor, at 2 h): 2 µg/mL; peak concentration in the blood ([3]; oral CBD 120 mg/kg in Solutol, at 6 h): 3.2 µg/mL; levels in whole blood (average) [4, 8]: 0.93 ng/mL; levels in whole blood (range) [4, 8]: 0.3 to 2.6 ng/mL; time detectable after administration ([4]; gelatin capsules with extract): 3 to 4 h; whole-blood concentration [5]: about 5 ng/mL; mean concentration over time ([6]; Brain/Cremophor, 0.5 h, single oral dose of extract 30 mg/kg): 274.994; mean concentration over time ([6]; Brain/Cremophor, 1 h, single oral dose of extract 30 mg/kg): 213.491; mean concentration over time ([6]; Brain/Cremophor, 2 h, single oral dose of extract 30 mg/kg): 81.1135; mean concentration over time ([6]; Brain/Cremophor, 4 h, single oral dose of extract 30 mg/kg): 52.1185; mean concentration over time ([6]; Brain/Cremophor, 6 h, single oral dose of extract 30 mg/kg): 57.7145; mean concentration over time ([6]; Brain/Cremophor, 24 h, single oral dose of extract 30 mg/kg): 3.604; mean concentration over time ([6]; Brain/Rapae oleum, 0.5 h, single oral dose of extract 30 mg/kg): 23.327; mean concentration over time ([6]; Brain/Rapae oleum, 1 h, single oral dose of extract 30 mg/kg): 65.391; mean concentration over time ([6]; Brain/Rapae oleum, 2 h, single oral dose of extract 30 mg/kg): 301.388; mean concentration over time ([6]; Brain/Rapae oleum, 4 h, single oral dose of extract 30 mg/kg): 263.466; mean concentration over time ([6]; Brain/Rapae oleum, 6 h, single oral dose of extract 30 mg/kg): 59.650; mean concentration over time ([6]; Brain/Rapae oleum, 24 h, single oral dose of extract 30 mg/kg): 9.797; Kp ([6]; male, Wistar, rat, brain / whole blood, po, 30 mg/kg, AUCbrain:AUC whole blood (AUC0–24 ratio), Cremophor, single oral dose of extract 30 mg/kg): 0.95; Kp ([6]; male, Wistar, rat, brain / whole blood, po, 30 mg/kg, AUCbrain:AUC whole blood (AUC0–24 ratio), Rapae oleum, single oral dose of extract 30 mg/kg): 1.54; concentration at 0.5 h ([6]; male, Wistar, rat, brain, oral, 30 mg/kg, Mean Concentration, Cremophor, 0.5 h, single oral dose of extract 30 mg/kg): 275 ± 104 ng/g; concentration at 1 h ([6]; male, Wistar, rat, brain, oral, 30 mg/kg, Mean Concentration, Cremophor, 1 h, single oral dose of extract 30 mg/kg): 213 ± 66.1 ng/g; concentration at 2 h ([6]; male, Wistar, rat, brain, oral, 30 mg/kg, Mean Concentration, Cremophor, 2 h, single oral dose of extract 30 mg/kg): 81.1 ± 23.4 ng/g; concentration at 4 h ([6]; male, Wistar, rat, brain, oral, 30 mg/kg, Mean Concentration, Cremophor, 4 h, single oral dose of extract 30 mg/kg): 52.1 ± 12.2 ng/g; concentration at 6 h ([6]; male, Wistar, rat, brain, oral, 30 mg/kg, Mean Concentration, Cremophor, 6 h, single oral dose of extract 30 mg/kg): 57.7 ± 25.9 ng/g; concentration at 24 h ([6]; male, Wistar, rat, brain, oral, 30 mg/kg, Mean Concentration, Cremophor, 24 h, single oral dose of extract 30 mg/kg): 3.6 ± 0.493 ng/g; Tmax ([6]; male, Wistar, rat, brain, po, 30 mg/kg): 2 h; AUC(0-t) [6, 9]: 943 ng·h/mL; AUC(0-t) [6, 10]: 1990 ng·h/mL; Cmax [6, 9]: 275 ng/g; Cmax [6, 10]: 301 ng/g; MRT [6, 9]: 6.19 h; MRT [6, 10]: 7.76 h; Kp ([6]; male, Wistar, rat, brain/whole blood, oral, 30 mg/kg, brain/whole-blood ratio, Cremophor, present study): 2.29; CBD levels in whole blood ([7]; Cremophor): 1.43 to 231.43 ng/mL; concentration at 0.5 h [7, 11]: 26.9 ± 21.5 ng/g; concentration at 1 h [7, 11]: 107 ± 51 ng/g; concentration at 2 h [7, 11]: 334 ± 139 ng/g; concentration at 4 h [7, 11]: 154 ± 146 ng/g; concentration at 6 h [7, 11]: 37.6 ± 11.3 ng/g; concentration at 24 h [7, 11]: 2.76 ± 2.12 ng/g; concentration at 0.5 h [7, 12]: 120 ± 93.5 ng/g; concentration at 1 h [7, 12]: 109 ± 35.4 ng/g; concentration at 2 h [7, 12]: 46.5 ± 15.7 ng/g; concentration at 4 h [7, 12]: 35.1 ± 4.71 ng/g; concentration at 6 h [7, 12]: 31.4 ± 9.28 ng/g; concentration at 24 h [7, 12]: 12.3 ± 18 ng/g; concentration at 0.5 h [7, 13]: 120 ng/mL; concentration at 1 h [7, 13]: 109 ng/mL; concentration at 2 h [7, 13]: 46.5 ng/mL; concentration at 4 h [7, 13]: 35.1 ng/mL; concentration at 6 h [7, 13]: 31.4 ng/mL; concentration at 24 h [7, 13]: 12.3 ng/mL; concentration at 0.5 h [7, 14]: 26.9 ng/mL; concentration at 1 h [7, 14]: 107 ng/mL; concentration at 2 h [7, 14]: 334 ng/mL; concentration at 4 h [7, 14]: 154 ng/mL; concentration at 6 h [7, 14]: 37.6 ng/mL; concentration at 24 h [7, 14]: 2.76 ng/mL; AUC(0-t) [7, 15]: 988 ng·h/mL; AUC(0-t) [7, 16]: 1290 ng·h/mL; Cmax [7, 15]: 120 ng/mL; Cmax [7, 16]: 334 ng/mL; MRT [7, 15]: 12 h; MRT [7, 16]: 4.03 h; Tmax ([7]; male, Wistar, rat, po, 30 mg/kg, Tmax, Rapae oleum, single oral dose of extract 30 mg/kg): 2 h; CBD levels in whole blood ([7]; oil (Rapae oleum)): 1.06 to 588.03 ng/mL; time concentrations were detectable after administration ([7]; single oral dose of extract 30 mg/kg): up to 24 h; CL [7, 17]: 7.75 L/h; Tmax [7, 17]: 0.5 h; Vd [7, 17]: 69.66 L; CL [7, 18]: 5.85 L/h; Vd [7, 18]: 28.29 L
